The text below walks through data of patent US20220395443A1, “Oral Care Compositions and Methods” (Colgate-Palmolive Company, priority 2021, published 2022).

In experiment [1] the test system is Haemophilus parainfluenzae. In words: Growth of nitrate reducing species in optical density assay. The format is cell-based. As to conditions: for Effect on growth of Haemophilus parainfluenzae (in words): 1.5% KNO3 and 0.75% L-arginine alone or in combination, 26 h; for Optical Density (610 nm): pure culture, 0.75% L-arginine, 0.75% KNO3 (so in the source), or 1.5% KNO3 + 0.75% L-arginine by wt. of solution added, measured every two hours for 26 h, control 1.02. How it is done:
The impact of 1.5% KNO3 and 0.75% L-arginine alone or in combination on the growth of one known nitrate reducing species, Haemophilus parainfluenzae, is studied. Pure cultures of each species are grown in the presence of the compounds. Note, the wt. % of the potassium nitrate and L-arginine is relative to the total weight of the solution added to the culture. The growth is monitored by measuring the optical density at 610 nm every two hours for 26 h.

The test system of experiment [2] is salivary biofilms. In words: In vitro oral biofilm model, simple solutions: total NO3/NO2 in supernatant (colorimetric kit). The format is cell-based, human. The conditions noted are these: for NO3/NO2 (nmole per sample): biofilm supernatant, 2 min treatments twice daily, 5 days, 3% KNO3 and/or 1.5% L-arginine, all with 1.7% TSPP, untreated 5.93; for NO3/NO2 output (in words): repeated treatment with simple solutions. Here is the method:
(§1) An in vitro model for oral biofilms is treated with either 3% KNO3 or 1.5% L-arginine alone or in combination as simple solutions. Whole human saliva was used to inoculate sterile hydroxyapatite discs held in a vertical position using a specially designed steel lid as indicated in Kumar et al. (2019). Biofilms in Human Diseases: Treatment and Control Nature, the contents of which are incorporated herein by reference in their entirety.
(§2) Following 6 h of inoculum, biofilms are treated for 2 min with simple solutions, rinsed and returned to fresh, filter-sterilized saliva. Biofilms were treated 2 times per day, with approximately 6 h between treatments for the subsequent 3 days. On the fifth day, biofilms are treated one time in the morning and then harvested approximately 3 h after treatment by sonication. Bacterial pellets are frozen and later subjected to DNA extraction and sequencing of the V3-V4 region of the 16 s ribosomal RNA subunit in order to identify the relative abundance of bacteria present in each sample to the genus level. The final supernatants were also retained, filter-sterilized and tested for total nitrate/nitrite concentrations to determine if any changes in nitrate production could be detected from the biofilm communities.
(§3) For these studies, all solutions were made fresh in dH2O and used within 1 h of being made. Solutions were prepared by weight to contain each of the following: 3% KNO3, 1.5% L-arginine, both by weight of the solution, or no active. Additionally, all solutions contained 1.7% TSPP for additional stabilization. Solution pH values were not adjusted before treatment.
At the end of the experiment, filter sterilized samples were tested for total NO3/NO2 using a colorimetric nitrate/nitrite assay kit (Sigma). Due to low sample volumes, samples were only tested for total NO3/NO2.

Experiment [3] has as its system Haemophilus parainfluenzae. Description: In vitro oral biofilm model, simple solutions: 16S V3-V4 sequencing. The conditions noted are these: simple solutions: 3% KNO3 and/or 1.5% L-arginine; untreated (PBS) 0.14. The class given is cell-based. How it is done:
as §1, §2, §3
(§4) The composition of the microbiome of each sample is studied to assess the bacterial community shifts induced by treatment with: potassium nitrate alone, L-arginine alone, or potassium nitrate and L-arginine in combination.

Experiment [4] relates to Neisseria flavescens subflava. The description is as above. The format is cell-based. As to conditions: simple solutions: 3% KNO3 and/or 1.5% L-arginine; untreated (PBS) 1.23. Here is the method: as §1, §2, §3, §4
Experiment [5] concerns Prevotella melaninogenica. Described as above. The format is cell-based. As to conditions: simple solutions: 3% KNO3 and/or 1.5% L-arginine; untreated (PBS) 0.31. How it is done: as §1, §2, §3, §4
In experiment [6] the test system is Rothia dentocariosa. The experiment is described as above. The format is cell-based. How it is done: as §1, §2, §3, §4
Experiment [7] deals with Veillonella parvula. The description is as above. The format is cell-based. The conditions noted are these: simple solutions: 3% KNO3 and/or 1.5% L-arginine; untreated (PBS) 4.59. How it is done:
as §1, §2, §3, §4

Experiment [8] deals with Oral biofilms. Description: Measurement of nitrite in oral biofilms after potassium nitrate challenge. The format is cell-based, human. The conditions noted are these: treated twice a day for five days with simple solutions; total nitrite after five-minute challenge with 5% potassium nitrate; untreated 0.11. Here is the method: Oral biofilms are grown on hydroxyapatite discs in saliva as discussed in the process detailed in Example 3. Over the course of five days, the biofilms receive treatment twice a day. Specifically, the biofilms receive treatment with samples containing simple solutions of water and 3% (by wt.) potassium nitrate and 5% (by wt.) arginine or a simple solution of water and 3% (by wt.) potassium nitrate alone. Following treatment, there is measurement of total nitrite (mg/L) in the biofilms following a five-minute challenge with 5% potassium nitrate.

Where two headings read alike, the source gives them in different places.

Turning to `N=C(N)NCCC[C@H](N)C(=O)O` [L-arginine], in experiment [1], the “Effect on growth of Haemophilus parainfluenzae (in words)” value is “slightly reduce growth” and the “Optical Density (610 nm)” value is on record as 0.65. For the same compound, in experiment [2], the “NO3/NO2 (nmole per sample)” value is 6.01 nmole per sample and the “NO3/NO2 output (in words)” value is on record as “small increases”. Further, the “Relative abundance of Haemophilus parainfluenzae” value in experiment [3] is on record as 0.83 relative units of abundance. Further, in experiment [4], the “Relative abundance of Neisseria flavescens subflava” value is recorded as 0.54 relative units of abundance. For the same compound, the “Relative abundance of Prevotella melaninogenica” value in experiment [5] was 0.07 relative units of abundance. Also, in experiment [6] (simple solutions: 3% KNO3 and/or 1.5% L-arginine, untreated (PBS) 0.02), the “Relative abundance of Rothia dentocariosa” value is reported as 0.02 relative units of abundance. The “Relative abundance of Veillonella parvula” value in experiment [7] is 3.28 relative units of abundance.

On to `O=[N+]([O-])[O-].[K+]` [KNO3, potassium nitrate], for which, in experiment [1], the “Effect on growth of Haemophilus parainfluenzae (in words)” value is reported as “no effect on the growth” and the “Optical Density (610 nm)” value was found to be 0.99. Besides, in experiment [2], the “NO3/NO2 (nmole per sample)” value was determined as 6.00 nmole per sample and the “NO3/NO2 output (in words)” value was “small increases”. Moreover, in experiment [3], the “Relative abundance of Haemophilus parainfluenzae” value is recorded as 0.04 relative units of abundance. In addition, in experiment [4], the “Relative abundance of Neisseria flavescens subflava” value is given as 0.05 relative units of abundance. For the same compound, in experiment [5], the “Relative abundance of Prevotella melaninogenica” value was 0.67 relative units of abundance. Moreover, the “Relative abundance of Rothia dentocariosa” value in experiment [6] was 0 relative units of abundance. Further, the “Relative abundance of Veillonella parvula” value in experiment [7] is recorded as 0.78 relative units of abundance. Moreover, the “Biofilm Nitrite Measurement” value in experiment [8] was found to be 0.8 mg/L.
